Columns and labels:
[1] = Fluorescence emission spectrum and quenching efficiency of substrate 1 versus BODIPY FL-acid; format: physicochemical
Protocol: Fluorescence emission spectra for substrate 1 and BODIPY® FL-acid: The emission spectra were obtained for substrate 1 and BODIPY® FL-acid in citrate-phosphate buffer (150 mM; pH 5.4) containing 1% DMSO and 0.25% taurodeoxycholate. Data were collected using a Molecular Devices plate reader ([…]). […] The excitation wavelength used was 485 nm and the emission wavelength was 513 nm.
Determination of the quenching efficiencies for substrate 1 using concentration dependent variation in the fluorescence emission of substrate 1 and its corresponding fluorophore BODIPY® FL-acid: The quenching efficiencies were determined by comparing the fluorescence emission standard curves of substrate 1 and comparing it to that of BODIPY® Fl-acid.

[2] = biological target: T1, purified recombinant GCase (Homo sapiens, UniProt P04062); test: In-vitro kinetic assay with purified recombinant GCase; format: biochemical; conditions: same kinetic assay, substrate 3 vs 9b
T1 construct: purchased R&D Systems
T1 sequence (P04062 40-536): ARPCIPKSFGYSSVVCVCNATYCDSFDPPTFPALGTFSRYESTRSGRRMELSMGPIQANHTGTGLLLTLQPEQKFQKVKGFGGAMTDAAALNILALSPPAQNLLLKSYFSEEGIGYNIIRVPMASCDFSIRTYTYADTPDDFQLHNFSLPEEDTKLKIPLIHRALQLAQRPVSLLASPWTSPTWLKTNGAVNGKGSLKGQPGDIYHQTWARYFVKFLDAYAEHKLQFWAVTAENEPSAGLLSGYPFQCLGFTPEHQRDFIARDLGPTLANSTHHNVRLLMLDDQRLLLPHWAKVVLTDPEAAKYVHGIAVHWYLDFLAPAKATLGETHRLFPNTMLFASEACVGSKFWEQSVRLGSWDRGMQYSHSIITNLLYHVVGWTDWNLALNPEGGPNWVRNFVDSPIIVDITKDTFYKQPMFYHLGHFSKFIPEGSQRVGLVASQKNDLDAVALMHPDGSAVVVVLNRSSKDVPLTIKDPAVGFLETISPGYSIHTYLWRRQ
Protocol: (§1) In-vitro kinetic assay for substrate 1. Continuous assays were performed at 30° C. in citrate-phosphate buffer (150 mM; pH 5.4) containing 0.25% taurodeoxycholate. The concentrations of substrate 1 used in assays were 0.39, 0.78, 1.56, 3.13 6.25, 12.5, 25 and 50 μM. Reactions were initiated by the addition of purified recombinant GCase (2.5 nM, R&D Systems) and the reaction was monitored continuously over 1200 seconds to determine the initial rate of change of fluorescence. Standard curves were constructed using BODIPY® Fl-acid using the same buffer conditions. […] Assays were carried out in triplicate.
as §1, with “Comparative In-vitro” for “In-vitro”, “substrate 3 and 9b.” for “substrate 1.”, “of substrates 3 and 9b” for “of substrate 1”, “were 0.156, 0.313, 0.625, 1.25, 2.5, 5, 10,” for “were 0.39, 0.78, 1.56, 3.13 6.25, 12.5, 25”, “and 20” for “and 50”, “using TAMRA and BODIPY-576” for “using BODIPY® Fl-acid”

[3] = biological target: T2, GCase (Homo sapiens, UniProt P04062); test: GCase inhibition by AT3375 in live SK-N-SH cells read with substrate 1; format: cell-based; conditions: 10 μM AT3375 with 5 μM substrate 1, 2 h
T2 construct: High content imaging of SK-N-SH cells incubated for 2 h; endogenous in cells; host or cells: SK-N-SH
T2 sequence (P04062 40-536): T1 sequence (P04062 40-536)
Protocol: After incubation at 37° C. and 5% CO2 for 2 h, the media was removed and the cells were washed.
After incubation at 37° C. and 5% CO2 for 2 h, the media was removed, and the cells were washed. The plate was then imaged using a Molecular Devices ImageXpress XLS High-Content Imager. From the images, the total mean integrated intensity was measured for the FITC channel and divided by the number of cells within the imaging site as determined by the DAPI staining.

SMILES: COc1cc(/N=N/c2ccc(C)cc2[N+](=O)[O-])c(C)cc1/N=N/c1ccc(N(C)CCCC(=O)NCCCO[C@@H]2O[C@H](COCc3cn(CCCNC(=O)[C@H](CCCCN(C)C)NC(=O)CCC4=[N+]5C(=Cc6c(C)cc(C)n6[B-]5(F)F)C=C4)nn3)[C@@H](O)[C@H](O)[C@H]2O)cc1 [substrate 1, (S)-2-(3-(5,5-difluoro-7,9-dimethyl-dipyrrolo[1,2-c:2′,1′-f][1,3,2]diazaborinin-4-ium-5-uid-3-yl)propanamido)-6-(dimethylamino)-N-(3-(4-((((2R,3S,4S,5R,6R)-3,4,5-trihydroxy-6-(3-(4-((4-((E)-(2-methoxy-5-methyl-4-((E)-(4-methyl-2-nitrophenyl)diazenyl)phenyl)diazenyl)phenyl)(methyl)amino)butanamido)propoxy)tetrahydro-2H-pyran-2-yl)methoxy)methyl)-1H-1,2,3-triazol-1-yl)propyl)hexanamide]
- fluorescence emission of intact substrate compared to free fluorophore BODIPY FL-acid ([1]; 6.25 μM, citrate-phosphate buffer 150 mM, pH 5.4, excitation 485 nm, emission 513 nm): strikingly little fluorescence
- quenching efficiency ([1]; fluorescence emission standard curves compared to BODIPY Fl-acid): greater than 99.7%

SMILES: COc1cc(/N=N/c2ccc([N+](=O)[O-])cc2)c(OC)cc1/N=N/c1ccc(N(C)CCCC(=O)NCCc2ccc(O[C@@H]3O[C@H](COCCCCn4cc(CNC(=O)[C@H](CCCCN(C)C)NC(=O)c5ccc(-c6c7ccc(=[N+](C)C)cc-7oc7cc(N(C)C)ccc67)c(C(=O)O)c5)nn4)[C@@H](O)[C@H](O)[C@H]3O)cc2)cc1 [substrate 3, 5-(((S)-1-(((1-(4-(((2R,3S,4S,5R,6S)-6-(4-(2-(4-((4-((E)-(2,5-dimethoxy-4-((E)-(4-nitrophenyl)diazenyl)phenyl)diazenyl)phenyl)(methyl)amino)butanamido)ethyl)phenoxy)-3,4,5-trihydroxytetrahydro-2H-pyran-2-yl)methoxy)butyl)-1H-1,2,3-triazol-4-yl)methyl)amino)-6-(dimethylamino)-1-oxohexan-2-yl)carbamoyl)-2-(6-(dimethylamino)-3-(dimethyliminio)-3H-xanthen-9-yl)benzoate]
- second order rate constant relative to 9b [2]: more than 5 fold

SMILES: O[C@H]1[C@H](O)CNC[C@@H]1C(F)F [AT3375, (3R,4R,5S)-5-(difluoromethyl)piperidine-3,4-diol]
- effect on fluorescent signal from substrate 1 [3]: significant reduction of the punctuated fluorescent signal

Source: patent publication US20250130225A1, “SUBSTRATES FOR IMAGING GLUCOCEREBROSIDASE ACTIVITY” (SIMON FRASER UNIVERSITY, priority 2021, published 2025)
